The values that follow come from paper PMC9505538, “P-Glycoprotein (MDR1/ABCB1) Restricts Brain Accumulation of the Novel EGFR Inhibitor EAI045 and Oral Elacridar Coadministration Enhances Its Brain Accumulation and Oral Exposure” (Pharmaceuticals, 2022).

In data set [1] the test system is lung cancer driven by EGFR(L858R/T790M). The settings on record: cited from earlier work.
A further data set addresses T1, human ABCG2 (Homo sapiens, UniProt Q9UNQ0).
T1 construct: expressed in transfected cells; host or cells: MDCK-II cells, stably transduced, generated in the authors' institute
T1 sequence (Q9UNQ0 1-655): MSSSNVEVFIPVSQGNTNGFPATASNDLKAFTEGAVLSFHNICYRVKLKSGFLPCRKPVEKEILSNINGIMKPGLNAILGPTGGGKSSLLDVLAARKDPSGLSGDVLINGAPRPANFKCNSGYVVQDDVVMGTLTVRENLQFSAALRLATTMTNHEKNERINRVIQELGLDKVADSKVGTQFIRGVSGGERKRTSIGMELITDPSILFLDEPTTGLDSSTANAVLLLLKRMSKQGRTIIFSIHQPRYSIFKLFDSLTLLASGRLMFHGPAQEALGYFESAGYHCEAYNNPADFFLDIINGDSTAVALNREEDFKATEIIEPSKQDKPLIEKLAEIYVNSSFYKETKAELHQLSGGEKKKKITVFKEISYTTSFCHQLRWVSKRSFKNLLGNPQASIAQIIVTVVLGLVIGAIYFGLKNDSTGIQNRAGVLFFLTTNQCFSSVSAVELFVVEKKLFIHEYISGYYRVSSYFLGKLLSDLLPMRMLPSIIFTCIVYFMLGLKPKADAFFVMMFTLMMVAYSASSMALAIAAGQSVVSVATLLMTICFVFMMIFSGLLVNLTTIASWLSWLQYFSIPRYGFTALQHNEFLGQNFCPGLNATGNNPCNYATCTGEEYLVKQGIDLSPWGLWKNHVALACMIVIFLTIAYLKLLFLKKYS
Kind of data set: Transepithelial transport of EAI045, MDCK-II cells transduced with human ABCG2. As to conditions: for efflux ratio r (relative transport ratio): EAI045 5 μM. It is filed as in vitro ADME. As to the method: (§1) Transport of EAI045 (5 μM) across epithelia was tested using cell layers of Madin–Darby Canine Kidney (MDCK-II) cells and derived clones expressing hABCB1, hABCG2, or mAbcg2 cDNA. […] In cells overexpressing hABCB1, there was clear transport of EAI045 in the apical direction (r = 5.5, Figure 1C). […] To evaluate the interaction between hABCG2 and mAbcg2 and EAI045, zosuquidar (5 μM) was added to inhibit any endogenous canine ABCB1. In cells overexpressing hABCG2, the BA transport of EAI045 was somewhat increased relative to the AB transport, resulting in an efflux ratio of 1.4 (Figure 1E).
(§2) Figure 1 In vitro transepithelial transport of EAI045 (5 μM) using MCDK-II parental cells (A,B) or transduced with human ABCB1 (C,D), human ABCG2 (E,F), or murine Abcg2 (G,H) cDNA. At t = 0 EAI045 was added in the donor compartment (either apical or basolateral). At 1, 2, and 4 h EAI045 was quantified in the acceptor compartment and the cumulative total transported amount per well was plotted (n = 3). Zosuquidar (5 μM) was added to inhibit the human and/or the endogenous ABCB1, while Ko143 (5 μM) was added to inhibit the human or murine ABCG2. r, relative transport ratio. […] Points, mean; bars, SD. TEXT PRINTED IN THE PICTURE: (A) no label printed: Parental: r = 1.7 | (B) no label printed: Parental + Zos.: r = 1.1 | (C) no label printed: hABCB1: r = 5.5 | (D) no label printed: hABCB1 + Zos.: r = 1.3 | (E) no label printed: hABCG2 + Zos.: r = 1.4 | (F) no label printed: hABCG2 + Zos. + Ko143: r = 1.1 | (G) no label printed: mAbcg2 + Zos.: r = 1.8 | (H) no label printed: mAbcg2 + Zos. + Ko143: r = 1.4
(§3) Madin–Darby Canine Kidney (MDCK-II) cells (ECACC 00062107) stably transduced with human (h) ABCB1, hABCG2, or mouse (m) Abcg2 cDNA were generated in our institute between 1998 and 2005. […] In short, cells were allowed to grow an intact monolayer in 3 days, which was monitored with transepithelial electrical resistance (TEER) measurements, both before and after the transport phase. […] Proper functionality of these cell lines was monitored by continual testing with a variety of drug substrates.

The target in another data set is T2, endogenous canine ABCB1 (Canis lupus familiaris, UniProt C0KKU9).
T2 construct: the endogenous canine ABCB1, expressed at low levels in the parental cell line; endogenous in cells; host or cells: MDCK-II parental cells (ECACC 00062107)
The data set is described as follows: Transepithelial transport of EAI045 across MDCK-II parental cell layers. It is filed as in vitro ADME. As to conditions: for efflux ratio r (relative transport ratio): EAI045 5 μM. As to the method:
as §1, §2, §3

T2 sequence (C0KKU9 1-1281): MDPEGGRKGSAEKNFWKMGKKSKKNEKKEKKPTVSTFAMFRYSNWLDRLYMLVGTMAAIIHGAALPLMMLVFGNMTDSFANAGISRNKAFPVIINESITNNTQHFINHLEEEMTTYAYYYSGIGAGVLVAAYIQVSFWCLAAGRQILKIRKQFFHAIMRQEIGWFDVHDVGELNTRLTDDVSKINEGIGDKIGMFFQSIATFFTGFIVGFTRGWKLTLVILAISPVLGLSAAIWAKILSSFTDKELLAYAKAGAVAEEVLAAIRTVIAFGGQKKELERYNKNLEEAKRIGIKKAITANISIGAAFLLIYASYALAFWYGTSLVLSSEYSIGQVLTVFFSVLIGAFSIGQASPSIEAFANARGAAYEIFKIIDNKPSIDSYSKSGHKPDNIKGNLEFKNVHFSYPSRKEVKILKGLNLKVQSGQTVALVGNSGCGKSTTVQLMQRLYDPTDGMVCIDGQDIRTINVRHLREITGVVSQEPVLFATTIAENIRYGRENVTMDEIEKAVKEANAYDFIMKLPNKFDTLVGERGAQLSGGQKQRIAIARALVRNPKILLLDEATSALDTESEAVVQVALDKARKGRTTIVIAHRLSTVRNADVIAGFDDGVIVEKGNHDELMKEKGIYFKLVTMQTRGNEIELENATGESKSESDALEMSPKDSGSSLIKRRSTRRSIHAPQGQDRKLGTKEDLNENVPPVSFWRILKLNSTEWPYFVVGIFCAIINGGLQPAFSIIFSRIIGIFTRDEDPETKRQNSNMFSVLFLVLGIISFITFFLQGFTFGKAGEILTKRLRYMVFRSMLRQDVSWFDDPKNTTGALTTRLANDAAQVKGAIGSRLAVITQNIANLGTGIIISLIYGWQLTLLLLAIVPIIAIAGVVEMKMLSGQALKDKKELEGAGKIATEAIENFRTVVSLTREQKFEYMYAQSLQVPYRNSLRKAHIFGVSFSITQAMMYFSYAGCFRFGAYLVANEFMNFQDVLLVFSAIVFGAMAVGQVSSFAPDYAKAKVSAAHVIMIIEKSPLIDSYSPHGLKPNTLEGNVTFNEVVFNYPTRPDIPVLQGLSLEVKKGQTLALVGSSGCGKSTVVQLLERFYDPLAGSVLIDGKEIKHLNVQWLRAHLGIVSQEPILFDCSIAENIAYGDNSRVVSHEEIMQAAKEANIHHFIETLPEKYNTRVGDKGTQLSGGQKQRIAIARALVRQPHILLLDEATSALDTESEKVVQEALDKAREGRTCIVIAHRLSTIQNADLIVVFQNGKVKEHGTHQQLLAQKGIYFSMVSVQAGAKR

Consider `O=C(Nc1nccs1)C(c1cc(F)ccc1O)N1Cc2ccccc2C1=O` (centres unmarked) [EAI045], for which the “effect in L858R/T790M mutant mice, combination treatment” value in data set [1] (EAI045 combined with cetuximab) is given as “marked tumor regressions”. The “effect in L858R/T790M mutant mice, agent alone” value in data set [1] (single agent) is reported as “very modest effect”. Further, the “efflux ratio r (relative transport ratio)” value at human ABCG2 (hABCG2 + zosuquidar 5 μM) worked out at 1.4; on human ABCG2 (hABCG2 + zosuquidar 5 μM + Ko143 5 μM) it was 1.1; on endogenous canine ABCB1 (parental + zosuquidar 5 μM), 1.1; at endogenous canine ABCB1 (parental, no inhibitor), 1.7. Besides, the “transport by human ABCG2” value at human ABCG2 (in vitro) is “at best slightly transported”. In addition, the “transport substrate of endogenous canine ABCB1” value on endogenous canine ABCB1 (in vitro) is given as “moderate transport substrate”.
